Molecular target: T1, GABA A α5 (α5β3γ2) (Homo sapiens, UniProt P18507+P31644)
T1 construct: expressed in transfected cells; host or cells: HEK293 (transiently transfected), membranes
Test: [3H]flumazenil competition binding assay, human GABA A α5 receptors in HEK293 cells
Conditions: competition for [3H]flumazenil (0.5 nM); HEK293 cells expressing human (transiently transfected) receptors; means of two determinations; read-out: hKi GABA A α5
Description: Membrane Preparation and Binding Assay
The affinity of compounds at GABA A receptor subtypes was measured by competition for [3H]flumazenil (85 Ci/mmol; Roche) binding to HEK293 cells expressing rat (stably transfected) or human (transiently transfected) receptors of composition α1β3γ2, α2β3γ2, α3β3γ2 and α5β3γ2.
Cell pellets were suspended in Krebs-tris buffer (4.8 mM KCl, 1.2 mM CaCl2, 1.2 mM MgCl2, 120 mM NaCl, 15 mM Tris; pH 7.5; binding assay buffer), homogenized by polytron for ca. 20 sec on ice and centrifuged for 60 min at 4° C. (50000 g; Sorvall, rotor: SM24=20000 rpm). The cell pellets were resuspended in Krebs-tris buffer and homogenized by polytron for ca. 15 sec on ice. Protein was measured (Bradford method, Bio-Rad) and aliquots of 1 mL were prepared and stored at −80° C.
Radioligand binding assays were carried out in a volume of […] (96-well plates) which contained […] of cell membranes, [3H]flumazenil at a concentration of 1 nM for α1, α2, α3 subunits and 0.5 nM for α5 subunits and the test compound in the range of […]. Nonspecific binding was defined by 10^−5 M diazepam and typically represented less than 5% of the total binding. Assays were incubated to equilibrium for 1 hour at 4° C. and harvested onto GF/C uni-filters (Packard) by filtration using a Packard harvester and washing with ice-cold wash buffer (50 mM Tris; pH 7.5). After drying, filter-retained radioactivity was detected by liquid scintillation counting. Ki values were calculated using Excel-Fit (Microsoft) and are the means of two determinations.
Representative test results, obtained by the above described assay measuring binding affinity to HEK293 cells expressing human (h) receptors, are shown in table 1 below.

| Ki | Structure (SMILES) |
| --- | --- |
| 1.1 nM | CC(C)NC(=O)c1ccc(OCc2c(-c3ccc(F)cc3)noc2CO)nc1 [Example 4, 6-[3-(4-Fluoro-phenyl)-5-hydroxymethyl-isoxazol-4-ylmethoxy]-N-isopropyl-nicotinamide] |
| 7.7 nM | COCCNC(=O)c1ccc(OCc2c(-c3ccc(F)c(F)c3)noc2CO)nc1 [Example 36, 6-[3-(3,4-Difluoro-phenyl)-5-hydroxymethyl-isoxazol-4-ylmethoxy]-N-(2-methoxy-ethyl)-nicotinamide] |
| 51.3 nM | CCCCc1noc(CO)c1COc1ccc(C(=O)N2CCC2)cn1 [Example 53, Azetidin-1-yl-[6-(3-Butyl-5-hydroxymethyl-isoxazol-4-ylmethoxy)-pyridin-3-yl]-methanone] |
| 1.6 nM | O=C(N[C@H]1CCC[C@@H]1O)c1ccc(OCc2c(-c3ccc(F)cc3)noc2CO)nc1 (racemic) [Example 10, 6-[3-(4-Fluoro-phenyl)-5-hydroxymethyl-isoxazol-4-ylmethoxy]-N-((1R,2R)-2-hydroxy-cyclopentyl)-nicotinamide or 6-[3-(4-Fluoro-phenyl)-5-hydroxymethyl-isoxazol-4-ylmethoxy]-N-((1S,2S)-2-hydroxy-cyclopentyl)-nicotinamide] |
| 4 nM | O=C(NCC1CC1)c1ccc(OCc2c(-c3ccc(F)c(F)c3)noc2CO)nc1 [Example 30, N-Cyclopropylmethyl-6-[3-(3,4-difluoro-phenyl)-5-hydroxymethyl-isoxazol-4-ylmethoxy]-nicotinamide] |
| 8.7 nM | CCCCc1noc(CO)c1COc1ccc(C(=O)NC2(C)COC2)cn1 [Example 50, 6-(3-Butyl-5-hydroxymethyl-isoxazol-4-ylmethoxy)-N-(3-methyloxetan-3-yl)-nicotinamide] |
| 50.5 nM | CCCCc1noc(CO)c1COc1ccc(C(=O)N2CCS(=O)(=O)CC2)cn1 [Example 55, [6-(3-Butyl-5-hydroxymethyl-isoxazol-4-ylmethoxy)-pyridin-3-yl]-(1,1-dioxo-thiomorpholin-4-yl)-methanone] |
| 1.2 nM | O=C(N[C@@H]1CCC[C@H]1O)c1ccc(OCc2c(-c3ccc(Cl)cc3)noc2CO)nc1 (single isomer, unassigned) [Example 26, 6-[3-(4-Chloro-phenyl)-5-hydroxymethyl-isoxazol-4-ylmethoxy]-N-((1S,2S)-2-hydroxy-cyclopentyl)-nicotinamide or 6-[3-(4-Chloro-phenyl)-5-hydroxymethyl-isoxazol-4-ylmethoxy]-N-((1R,2R)-2-hydroxy-cyclopentyl)-nicotinamide] |
| 10.1 nM | CC(C)(CO)NC(=O)c1ccc(OCc2c(-c3ccc(F)cc3)noc2CO)nc1 [Example 12, 6-[3-(4-Fluoro-phenyl)-5-hydroxymethyl-isoxazol-4-ylmethoxy]-N-(2-hydroxy-1,1-dimethyl-ethyl)-nicotinamide] |
| 10.8 nM | O=C(c1ccc(OCc2c(-c3ccccn3)noc2CO)nc1)N1CCS(=O)(=O)CC1 [Example 43, (1,1-Dioxo-1,6-thiomorpholin-4-yl)-[6-(5-hydroxymethyl-3-pyridin-2-yl-isoxazol-4-ylmethoxy)-pyridin-3-yl]-methanone] |
| 1.5 nM | CC(C)NC(=O)c1ccc(OCc2c(-c3ccc(F)c(F)c3)noc2CO)nc1 [Example 28, 6-[3-(3,4-Difluoro-phenyl)-5-hydroxymethyl-isoxazol-4-ylmethoxy]-N-isopropyl-nicotinamide] |
| 2.7 nM | O=C(NCC(F)(F)F)c1ccc(OCc2c(-c3ccc(F)c(F)c3)noc2CO)nc1 [Example 31, 6-[3-(3,4-Difluoro-phenyl)-5-hydroxymethyl-isoxazol-4-ylmethoxy]-N-(2,2,2-trifluoro-ethyl)-nicotinamide] |
| 0.9 nM | Cn1cc(NC(=O)c2ccc(OCc3c(-c4ccc(F)cc4)noc3CO)nc2)cn1 [Example 16, 6-[3-(4-Fluoro-phenyl)-5-hydroxymethyl-isoxazol-4-ylmethoxy]-N-(1-methyl-1H-pyrazol-4-yl)-nicotinamide] |
| 13.6 nM | CC(C)(CO)NC(=O)c1ccc(OCc2c(-c3ccc(F)c(F)c3)noc2CO)nc1 [Example 34, 6-[3-(3,4-Difluoro-phenyl)-5-hydroxymethyl-isoxazol-4-ylmethoxy]-N-(2-hydroxy-1,1-dimethyl-ethyl)-nicotinamide] |
| 10.2 nM | CCCCc1noc(CO)c1COc1ccc(C(=O)NCC(F)(F)F)cn1 [Example 51, 6-(3-Butyl-5-hydroxymethyl-isoxazol-4-ylmethoxy)-N-(2,2,2-trifluoroethyl)-nicotinamide] |
| 3.5 nM | O=C(c1ccc(OCc2c(-c3ccc(Cl)cc3)noc2CO)nc1)N1CCS(=O)(=O)CC1 [Example 18, {6-[3-(4-Chloro-phenyl)-5-hydroxymethyl-isoxazol-4-ylmethoxy]-pyridin-3-yl}-(1,1-dioxo-1-thiomorpholin-4-yl)-methanone] |

| Ki | Structure (SMILES) |
| --- | --- |
| 1.7 nM | O=C(NN1CCOCC1)c1ccc(OCc2c(-c3ccccn3)noc2CO)nc1 [Example 48, 6-(5-Hydroxymethyl-3-pyridin-2-yl-isoxazol-4-ylmethoxy)-N-morpholin-4-yl-nicotinamide] |
| 8.6 nM | O=C(c1ccc(OCc2c(-c3ccc(F)cc3)noc2CO)nc1)N1CCS(=O)(=O)CC1 [Example 3, (1,1-Dioxo-1,6-thiomorpholin-4-yl)-{6-[3-(4-fluoro-phenyl)-5-hydroxymethyl-isoxazol-4-ylmethoxy]-pyridin-3-yl}-methanone] |
| 1.8 nM | CC(NC(=O)c1ccc(OCc2c(-c3ccc(F)c(F)c3)noc2CO)nc1)C(F)(F)F (stereo not shown) [Example 32, 6-[3-(3,4-Difluoro-phenyl)-5-hydroxymethyl-isoxazol-4-ylmethoxy]-N-(2,2,2-trifluoro-1-methyl-ethyl)-nicotinamide] |
| 3.1 nM | O=C(NC1CC1)c1ccc(OCc2c(-c3ccc(F)c(F)c3)noc2CO)nc1 [Example 33, N-Cyclopropyl-6-[3-(3,4-difluoro-phenyl)-5-hydroxymethyl-isoxazol-4-ylmethoxy]-nicotinamide] |
| 1.7 nM | C[C@H](NC(=O)c1ccc(OCc2c(-c3ccc(Cl)cc3)noc2CO)nc1)C(F)(F)F [Example 25, 6-[3-(4-Chloro-phenyl)-5-hydroxymethyl-isoxazol-4-ylmethoxy]-N-([S]-2,2,2-trifluoro-1-methyl-ethyl)-nicotinamide] |
| 13.5 nM | O=C(c1ccc(OCc2c(-c3ccc(F)cn3)noc2CO)nc1)N1CCS(=O)(=O)CC1 [Example 56, (1,1-Dioxo-1,6-thiomorpholin-4-yl)-{6-[3-(5-fluoro-pyridin-2-yl)-5-hydroxymethyl-isoxazol-4-ylmethoxy]-pyridin-3-yl}-methanone] |
| 43.4 nM | CN(C)C(=O)c1ccc(OCc2c(-c3ccc(Cl)cc3)noc2CO)nc1 [Example 22, 6-[3-(4-Chloro-phenyl)-5-hydroxymethyl-isoxazol-4-ylmethoxy]-N,N-dimethyl-nicotinamide] |
| 1.4 nM | CC(NC(=O)c1ccc(OCc2c(-c3ccc(F)cc3)noc2CO)nc1)C(F)(F)F (stereo not shown) [Example 11, 6-[3-(4-Fluoro-phenyl)-5-hydroxymethyl-isoxazol-4-ylmethoxy]-N-(2,2,2-trifluoro-1-methyl-ethyl)-nicotinamide] |
| 1.8 nM | CC1(NC(=O)c2ccc(OCc3c(-c4ccc(F)cc4)noc3CO)nc2)COC1 [Example 17, 6-[3-(4-Fluoro-phenyl)-5-hydroxymethyl-isoxazol-4-ylmethoxy]-N-(3-methyl-oxetan-3-yl)-nicotinamide] |
| 0.6 nM | CC[C@@H](CO)NC(=O)c1ccc(OCc2c(-c3ccc(F)cc3)noc2CO)nc1 [Example 15, 6-[3-(4-Fluoro-phenyl)-5-hydroxymethyl-isoxazol-4-ylmethoxy]-N-((S)-1-hydroxymethyl-propyl)-nicotinamide] |
| 67.2 nM | O=C(c1ccc(OCc2c(-c3ccccn3)noc2CO)nc1)N1CCOCC1 [Example 54, [6-(5-Hydroxymethyl-3-pyridin-2-yl-isoxazol-4-ylmethoxy)-pyridin-3-yl]-morpholin-4-yl-methanone] |
| 1.3 nM | O=C(NCC(F)(F)F)c1ccc(OCc2c(-c3ccc(F)cc3)noc2CO)nc1 [Example 7, 6-[3-(4-Fluoro-phenyl)-5-hydroxymethyl-isoxazol-4-ylmethoxy]-N-(2,2,2-trifluoro-ethyl)-nicotinamide] |
| 1.6 nM | O=C(NCCO)c1ccc(OCc2c(-c3ccccc3)noc2CO)nc1 [Example 2, N-(2-Hydroxy-ethyl)-6-(5-hydroxymethyl-3-phenyl-isoxazol-4-ylmethoxy)-nicotinamide] |
| 1.3 nM | O=C(NC1CCOCC1)c1ccc(OCc2c(-c3ccc(F)cc3)noc2CO)nc1 [Example 5, 6-[3-(4-Fluoro-phenyl)-5-hydroxymethyl-isoxazol-4-ylmethoxy]-N-(tetrahydro-pyran-4-yl)-nicotinamide] |
| 0.7 nM | CC(C)NC(=O)c1ccc(OCc2c(-c3ccccn3)noc2CO)nc1 [Example 44, 6-(5-Hydroxymethyl-3-pyridin-2-yl-isoxazol-4-ylmethoxy)-N-isopropyl-nicotinamide] |
